Data reported in PubChem BioAssay AID1963597 (National Center for Advancing Translational Sciences (NCATS), 2024).

System: human liver microsomes, metabolic stability half-life
Assay: NCATS Human Liver Microsomal (HLM) Stability Profiling
Details: higher = more stable; screened at 1 µM (by protocol)
Excerpt: Assay submitter (PI): Dr. Pranav Shah
NIH Center for Advancing Translational Sciences
Pharmacokinetic issues were the leading cause of drug attrition, accounting for approximately 40% of all cases before the turn of the century. To this end, several high-throughput in vitro assays like microsomal stability have been developed to evaluate the pharmacokinetic profiles of compounds in early stages of drug discovery. At NCATS, a single-point rat liver microsomal (RLM) stability assay is used as a Tier I assay, while human liver microsomal (HLM) stability is employed as a Tier II assay. While it is beneficial to have compound libraries screened for HLM stability, the increasing magnitude of hits routinely generated, and the time- and re-source-intensive nature of the assay makes it important to find alternatives. One strategy is to rely on in silico models that have been developed using data generated from these assays. Herein, we describe the development of an HLM stability prediction model using our in-house dataset of ~7,000 compounds, employing both traditional and advanced machine learning methods. Additionally, the strong correlation between our RLM and HLM data was further reinforced by the fact that our HLM model performance improved after adding RLM stability predictions as an input descriptor. […] The best model along with a subset of our dataset has been made publicly accessible on the NCATS@ADME website for the benefit of the greater drug discovery community.
Microsomal Stability Assay
The substrate depletion method, also called the in vitro t1/2 method was used to analyze test compounds. Incubation and liquid handling were carried out using a previously described method (Shah et al., 2016). Briefly, each reaction mixture (110 µL) consisted of a test article (1 µM), human liver microsomes (0.5 mg/mL), and NADPH regenerating system in phosphate buffer at pH 7.4. Samples were incubated in 384-well plates at 37 degrees C for 0, 5, 10, 15, 30 and 60 min. At each time point, 10 µL of the incubation mixture was aspirated into another 384-well plate which contained cold acetonitrile (ACN) with internal standard (albendazole). All plates were centrifuged at 3000 rpm for 20 min at 4 degrees C, and the supernatants were transferred to a 384-well injection plate. Sample quantification and analysis was performed using a previously described method (Shah et al., 2016, Siramshetty et al., 2020).
1: Shah, P. et al. An Automated High-Throughput Metabolic Stability Assay Using an Integrated High-Resolution Accurate Mass Method and Automated Data Analysis Software. Drug Metab Dispos 44, 1653-1661 (2016).
2: Siramshetty et al. Retrospective assessment of rat liver microsomal stability at NCATS: data and QSAR models. Sci Rep 26;10(1):20713 (2020).

Compound | half-life
CCOc1ccc(-n2c([C@@H](C)N(Cc3cccnc3)C(=O)Cc3ccc(OC(F)(F)F)cc3)nc3ncccc3c2=O)cc1 | 8.23 min
CC(C)NC(=O)c1ccc(C=O)cc1 | 3.1 min
CC1(C)SCCN(S(=O)(=O)c2ccc(OCC#CCO)cc2)[C@@H]1C(=O)NO | > 120 min
CC(C)CCC(=O)CC1c2ccccc2C(=O)N1c1ccc2ccc(Cl)nc2n1 (stereo not drawn) | 7.76 min
Nc1nc(O)c(C2=C3C(=Nc4ccccc43)C(=O)NCC2)[nH]1 | > 120 min
Cn1nc(C(C)(C)C)cc1C(=O)NC(Cc1cccc(Cl)c1)C(=O)NCC#N (stereo not drawn) | 67.4 min
Clc1ccc(N2CCN(c3ncnc4c3nc3n4CCCC3)CC2)cc1 | 37.9 min
CCOP(=S)(OCC)Oc1ccc2c(C)c(Cl)c(=O)oc2c1 | 5.07 min
Nc1nc2ccccc2n1Cc1ccc(F)cc1 | > 120 min
O=c1[nH]c([C@@H]2CCCN2)nc2c1oc1ccc(Cl)cc12 | > 120 min
Cn1c(=O)c2c(ncn2CCO)n(C)c1=O | > 120 min
CC(C)(C)NCC(O)COc1ccc(NC(=O)NC2CCCCC2)cc1 (stereo not drawn) | > 120 min
CN(C)CC/C=C1\c2ccccc2Sc2ccc(Cl)cc21 | 24.3 min
C/C(=C(/OCCOc1ccc(Cl)cc1)c1ccc(Cl)cc1Cl)n1ccnc1 | 10.1 min
O=[N+]([O-])c1cn2c(n1)OC[C@@H](OCc1ccc(OC(F)(F)F)cc1)C2 | > 120 min
Cc1cn([C@@H]2O[C@H](CO)[C@@H](O)[C@H]2F)c(=O)[nH]c1=O | 22.1 min
CCOc1ccc(NC(=O)Cn2cc(C(=O)c3cccs3)c3ccccc32)cc1 | 10.5 min
CCCCC(CC)CN=C(N)NC(N)=NCCCCCCN=C(N)NC(N)=NCC(CC)CCCC (stereo not drawn) | > 120 min
CCCCNc1ncc2c(-c3ccc(F)cc3)nn(CC3CCC(N)CC3)c2n1 (stereo not drawn) | > 120 min

Compound | half-life
CCCc1ccc(OCC(=O)N2CCN(C(=O)COc3ccc(CCC)cc3OC)CC2)c(OC)c1 | 2.8 min
CC1(C#N)CCN(c2c(C(=O)N3CCN(C(=O)N4CCCC4)CC3)cnc3c(F)cc(F)cc23)CC1 | 27.2 min
COCC1(CO)C(=O)C2CCN1CC2 (stereo not drawn) | > 120 min
CNc1cccc(CCOc2ccc3c(c2)CN(CC(F)(F)F)C(=O)[C@H](CC(=O)O)C3)n1 | > 120 min
CC1(C)O[C@H]2CC(=O)OC[C@]23[C@H]2CC[C@@]4(C)[C@H](c5ccoc5)OC(=O)[C@H]5O[C@]54[C@]2(C)C(=O)C[C@@H]13 | 13.4 min
COC(=O)[C@@H]1CC2=CC(=O)CC[C@]2(C)[C@@]23O[C@@H]2C[C@@]2(C)[C@H](CC[C@@]24CCC(=O)O4)[C@@H]13 | > 120 min
Cc1ccc2c(c1)c1c3n2CCNC3CCC1 (stereo not drawn) | 8.9 min
CC(=O)Nc1nnc(S(N)(=O)=O)s1 | > 120 min
CC(=O)N1C[C@H](O)C[C@H]1C(=O)O | 50.1 min
COc1ccccc1N1CCN(CCCNc2cc(=O)n(C)c(=O)n2C)CC1 | > 120 min
CC(C)=CCC1C(=O)N(c2ccccc2)N(c2ccccc2)C1=O | > 120 min
CC(C)NC(=O)COc1cccc(-c2nc(Nc3ccc4[nH]ncc4c3)c3ccccc3n2)c1 | 23.4 min
O=C(O)COC(=O)Cc1ccccc1Nc1c(Cl)cccc1Cl | 2.83 min
O=c1[nH]c(=O)n([C@H]2C[C@H](O)[C@@H](CO)O2)cc1C(F)(F)F | > 120 min
COc1ccc(CNc2nc(N(CCO)CCO)nc3c2ncn3C(C)C)cc1 | 35.6 min
CC(C)NC[C@H](O)c1ccc2ccccc2c1 | 18.8 min
Clc1ccccc1-c1nc(-c2ccncc2)no1 | 35.8 min
CCC(=C(c1ccccc1)c1ccc(OCCN(C)C)cc1)c1ccccc1 | 94.5 min
CN1CCC(COc2cnc(-c3cccc(Cn4nc(-c5cccc(C#N)c5)ccc4=O)c3)nc2)CC1 | > 120 min
